Data as given in PMC3919815, “Anti-Tumor Effects of Novel 5-O-Acyl Plumbagins Based on the Inhibition of Mammalian DNA Replicative Polymerase Activity” (PLoS ONE, 2014).

Experiments:
Test in all cases: DNA polymerase activity inhibition
Type in all cases: biochemical
Calf pol α = target: T1, Calf pol α (Bos taurus, UniProt A0AAA9TD94); details: 0.05 units enzyme; mean ± SD (n = 3)
T1 construct: from tissue; host or cells: calf thymus
From the text: (§1) Pol α was purified from calf thymus by immunoaffinity column chromatography as described by Tamai et al.. Recombinant rat pol β was purified from Escherichia coli JMpβ5 as described by Date et al.. The human pol γ catalytic gene was cloned into pFastBac. Histidine-tagged enzyme was expressed using the BACTO-BAC HT Baculovirus Expression System according to the manufacturer's instructions (Life Technologies, Frederick, MD, USA) and purified using ProBound resin (Invitrogen Japan, Tokyo Japan). Human pols δ and ε were purified by nuclear fractionation of human peripheral blood cancer cells (Molt-4) using the second subunit of pol δ and ε-conjugated affinity column chromatography, respectively. A truncated form of human pol η (residues 1–511) tagged with His6 at its C-terminal was expressed in E. coli cells and purified as described by Kusumoto et al.. A recombinant mouse pol ι tagged with His6 at its C-terminal was expressed and purified by Ni–NTA column chromatography. A truncated form of pol κ (residues 1–560) with 6× His-tags attached at the C-terminus was overexpressed in E. coli and purified as described by Ohashi et al.. Recombinant human His-pol λ was overexpressed and purified according to a method described by Shimazaki et al.. Recombinant human His-pol μ was overexpressed in E. coli BL21 and purified using Glutathione Sepharose 4B (GE Healthcare Bio-Science Corp., Piscataway, NJ, USA) column chromatography according to the method for pol λ preparation by Shimazaki et al.. Pol α from a higher plant, cauliflower, was purified from the inflorescence structure according to the methods outlined by Sakaguchi et al.. Recombinant rice (Oryza sativa L. cv. Nipponbare) pol λ tagged with His6 at the C-terminus was expressed in E. coli and purified as described by Uchiyama et al.. Calf TdT, Taq pol, T4 pol, T7 RNA polymerase, and T4 polynucleotide kinase were purchased from Takara Bio Inc. (Kyoto, Japan). The Klenow fragment of pol I from E. coli was purchased from Worthington Biochemical Corp. (Freehold, NJ, USA). Bovine pancreas deoxyribonuclease I was obtained from Stratagene Cloning Systems (La Jolla, CA, USA).
(§2) The reaction mixtures for calf pol α, rat pol β, plant pol α, and prokaryotic pols have been described previously, [35]; those for pol γ as well as pols δ and ε were previously described by Umeda et al. and Ogawa et al., respectively. Those for pols η, ι, and κ were the same as for pol α, and those for pols λ and μ were the same as for pol β. For the pol reactions, poly(dA)/oligo(dT)18 (A/T, 2/1) and dTTP were used as the DNA template-primer substrate and nucleotide (dNTP; 2′-deoxynucleoside-5′-triphosphate) substrate, respectively. For the TdT reactions, oligo(dT)18 (3′-OH) and dTTP were used as the DNA primer substrate and nucleotide substrate, respectively.
(§3) The chemically synthesized 5-O-acyl plumbagins (2a–j) were dissolved in distilled dimethyl sulfoxide (DMSO) to various concentrations and sonicated for 30 s. Subsequently, 4 µL aliquots were mixed with 16 µL of each enzyme (0.05 units) in 50 mM Tris-HCl at pH 7.5, containing 1 mM dithiothreitol, 50% glycerol (by vol), and 0.1 mM ethylenediaminetetraacetic acid and held at 0°C for 10 min. These inhibitor-enzyme mixtures in 8 µL volumes were next added to 16 µL of enzyme standard reaction mixture and incubated at 37°C for 60 min, except for Taq pol, which was incubated at 74°C for 60 min. Activity without inhibitor was considered 100%, and the relative activity was determined for each inhibitor concentration. One unit of pol activity was defined as the amount of each enzyme that catalyzed the incorporation of 1 nmol dTTP into synthetic DNA template primers in 60 min, at 37°C, and under standard reaction conditions, [35].

Human pol γ = target: T2, Human pol γ (Homo sapiens, UniProt P54098)
T2 construct: His tag; made in house
From the text: as §1, §2, §3

Human pol ε = target: T3, Human pol ε (Homo sapiens, UniProt Q07864); details: 0.05 units enzyme; mean ± SD (n = 3)
T3 construct: purified by nuclear fractionation of human peripheral blood cancer cells (Molt-4); endogenous in cells; host or cells: Molt-4
From the text: as §1, §2, §3

Human pol κ = target: T4, Human pol κ (Homo sapiens, UniProt Q9UBT6); details: 0.05 units enzyme; mean ± SD (n = 3)
T4 construct: A truncated form of pol κ (residues 1–560) with 6× His-tags attached at the C-terminus; 6× His (C); made in house; host or cells: E. coli
T4 sequence (Q9UBT6 1-560): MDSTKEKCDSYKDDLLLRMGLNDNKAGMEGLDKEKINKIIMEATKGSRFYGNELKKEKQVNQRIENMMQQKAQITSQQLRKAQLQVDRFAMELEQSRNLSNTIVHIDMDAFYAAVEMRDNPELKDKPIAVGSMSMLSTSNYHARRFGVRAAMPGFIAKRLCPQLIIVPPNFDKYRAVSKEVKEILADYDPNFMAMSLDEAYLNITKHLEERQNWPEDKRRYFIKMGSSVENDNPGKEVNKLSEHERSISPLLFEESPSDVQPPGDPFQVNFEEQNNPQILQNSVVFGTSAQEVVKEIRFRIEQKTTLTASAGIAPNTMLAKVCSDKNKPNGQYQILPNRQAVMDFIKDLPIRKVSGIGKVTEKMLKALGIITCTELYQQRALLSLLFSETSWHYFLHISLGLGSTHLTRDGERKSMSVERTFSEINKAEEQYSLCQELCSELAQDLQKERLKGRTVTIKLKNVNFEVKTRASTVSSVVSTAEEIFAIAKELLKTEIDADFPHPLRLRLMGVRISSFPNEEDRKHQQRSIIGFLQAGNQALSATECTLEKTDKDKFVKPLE
From the text: as §1, §2, §3

Taq pol = target: T5, Taq pol (Thermus aquaticus, UniProt P19821)
T5 construct: purchased Takara Bio Inc. (Kyoto, Japan)
From the text: as §1, §2, §3

T5 sequence (P19821 whole entry): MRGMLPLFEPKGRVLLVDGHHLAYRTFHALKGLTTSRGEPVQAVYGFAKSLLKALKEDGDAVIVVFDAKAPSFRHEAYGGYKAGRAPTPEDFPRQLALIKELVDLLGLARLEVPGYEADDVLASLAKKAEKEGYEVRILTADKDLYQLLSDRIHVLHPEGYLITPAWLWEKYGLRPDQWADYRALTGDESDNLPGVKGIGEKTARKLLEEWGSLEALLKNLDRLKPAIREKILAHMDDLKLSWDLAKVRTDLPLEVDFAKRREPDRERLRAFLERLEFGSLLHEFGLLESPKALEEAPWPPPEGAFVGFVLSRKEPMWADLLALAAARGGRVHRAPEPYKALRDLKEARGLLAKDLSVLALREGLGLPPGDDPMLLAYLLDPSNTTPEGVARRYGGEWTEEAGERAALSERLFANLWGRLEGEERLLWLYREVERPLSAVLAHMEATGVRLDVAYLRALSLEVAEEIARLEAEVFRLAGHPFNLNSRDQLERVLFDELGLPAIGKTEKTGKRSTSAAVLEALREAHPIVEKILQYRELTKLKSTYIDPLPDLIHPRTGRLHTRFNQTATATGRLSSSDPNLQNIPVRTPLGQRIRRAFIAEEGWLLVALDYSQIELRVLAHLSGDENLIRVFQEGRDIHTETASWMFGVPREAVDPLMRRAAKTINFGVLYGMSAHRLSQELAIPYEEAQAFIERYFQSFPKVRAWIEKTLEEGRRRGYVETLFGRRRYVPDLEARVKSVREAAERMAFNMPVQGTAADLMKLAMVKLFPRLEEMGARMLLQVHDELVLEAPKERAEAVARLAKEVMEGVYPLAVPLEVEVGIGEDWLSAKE
T2 sequence (P54098 whole entry): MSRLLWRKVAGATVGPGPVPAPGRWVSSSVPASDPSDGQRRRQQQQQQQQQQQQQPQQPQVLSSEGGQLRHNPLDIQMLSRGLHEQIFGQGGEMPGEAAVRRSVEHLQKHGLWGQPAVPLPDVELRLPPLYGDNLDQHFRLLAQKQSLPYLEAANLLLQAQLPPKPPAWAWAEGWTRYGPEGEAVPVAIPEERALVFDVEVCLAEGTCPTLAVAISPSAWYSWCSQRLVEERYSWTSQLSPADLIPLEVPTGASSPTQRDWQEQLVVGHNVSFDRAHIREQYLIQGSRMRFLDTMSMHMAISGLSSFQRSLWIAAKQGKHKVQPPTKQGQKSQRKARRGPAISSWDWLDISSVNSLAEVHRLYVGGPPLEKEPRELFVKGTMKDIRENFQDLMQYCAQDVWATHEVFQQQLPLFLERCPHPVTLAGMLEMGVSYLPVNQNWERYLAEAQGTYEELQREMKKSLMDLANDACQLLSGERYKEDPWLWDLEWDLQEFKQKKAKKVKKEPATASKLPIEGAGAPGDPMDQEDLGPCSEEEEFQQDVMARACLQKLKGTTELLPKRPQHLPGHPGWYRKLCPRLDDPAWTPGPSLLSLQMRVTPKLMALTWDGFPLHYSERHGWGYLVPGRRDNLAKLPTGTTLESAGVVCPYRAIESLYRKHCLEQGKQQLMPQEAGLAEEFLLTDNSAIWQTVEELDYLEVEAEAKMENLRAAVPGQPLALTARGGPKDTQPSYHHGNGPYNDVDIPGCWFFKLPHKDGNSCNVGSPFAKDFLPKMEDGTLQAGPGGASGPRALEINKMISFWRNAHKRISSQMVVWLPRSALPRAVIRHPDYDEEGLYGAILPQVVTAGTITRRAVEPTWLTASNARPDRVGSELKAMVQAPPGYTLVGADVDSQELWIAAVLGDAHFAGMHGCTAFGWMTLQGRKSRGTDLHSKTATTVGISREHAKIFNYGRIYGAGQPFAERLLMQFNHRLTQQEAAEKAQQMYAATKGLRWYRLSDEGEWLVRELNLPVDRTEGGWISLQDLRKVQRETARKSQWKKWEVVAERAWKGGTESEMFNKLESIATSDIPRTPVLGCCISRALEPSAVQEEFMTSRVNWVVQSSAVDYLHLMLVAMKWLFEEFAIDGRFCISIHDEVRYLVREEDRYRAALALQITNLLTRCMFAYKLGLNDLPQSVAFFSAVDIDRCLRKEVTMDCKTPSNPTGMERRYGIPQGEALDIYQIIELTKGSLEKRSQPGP
T3 sequence (Q07864 whole entry): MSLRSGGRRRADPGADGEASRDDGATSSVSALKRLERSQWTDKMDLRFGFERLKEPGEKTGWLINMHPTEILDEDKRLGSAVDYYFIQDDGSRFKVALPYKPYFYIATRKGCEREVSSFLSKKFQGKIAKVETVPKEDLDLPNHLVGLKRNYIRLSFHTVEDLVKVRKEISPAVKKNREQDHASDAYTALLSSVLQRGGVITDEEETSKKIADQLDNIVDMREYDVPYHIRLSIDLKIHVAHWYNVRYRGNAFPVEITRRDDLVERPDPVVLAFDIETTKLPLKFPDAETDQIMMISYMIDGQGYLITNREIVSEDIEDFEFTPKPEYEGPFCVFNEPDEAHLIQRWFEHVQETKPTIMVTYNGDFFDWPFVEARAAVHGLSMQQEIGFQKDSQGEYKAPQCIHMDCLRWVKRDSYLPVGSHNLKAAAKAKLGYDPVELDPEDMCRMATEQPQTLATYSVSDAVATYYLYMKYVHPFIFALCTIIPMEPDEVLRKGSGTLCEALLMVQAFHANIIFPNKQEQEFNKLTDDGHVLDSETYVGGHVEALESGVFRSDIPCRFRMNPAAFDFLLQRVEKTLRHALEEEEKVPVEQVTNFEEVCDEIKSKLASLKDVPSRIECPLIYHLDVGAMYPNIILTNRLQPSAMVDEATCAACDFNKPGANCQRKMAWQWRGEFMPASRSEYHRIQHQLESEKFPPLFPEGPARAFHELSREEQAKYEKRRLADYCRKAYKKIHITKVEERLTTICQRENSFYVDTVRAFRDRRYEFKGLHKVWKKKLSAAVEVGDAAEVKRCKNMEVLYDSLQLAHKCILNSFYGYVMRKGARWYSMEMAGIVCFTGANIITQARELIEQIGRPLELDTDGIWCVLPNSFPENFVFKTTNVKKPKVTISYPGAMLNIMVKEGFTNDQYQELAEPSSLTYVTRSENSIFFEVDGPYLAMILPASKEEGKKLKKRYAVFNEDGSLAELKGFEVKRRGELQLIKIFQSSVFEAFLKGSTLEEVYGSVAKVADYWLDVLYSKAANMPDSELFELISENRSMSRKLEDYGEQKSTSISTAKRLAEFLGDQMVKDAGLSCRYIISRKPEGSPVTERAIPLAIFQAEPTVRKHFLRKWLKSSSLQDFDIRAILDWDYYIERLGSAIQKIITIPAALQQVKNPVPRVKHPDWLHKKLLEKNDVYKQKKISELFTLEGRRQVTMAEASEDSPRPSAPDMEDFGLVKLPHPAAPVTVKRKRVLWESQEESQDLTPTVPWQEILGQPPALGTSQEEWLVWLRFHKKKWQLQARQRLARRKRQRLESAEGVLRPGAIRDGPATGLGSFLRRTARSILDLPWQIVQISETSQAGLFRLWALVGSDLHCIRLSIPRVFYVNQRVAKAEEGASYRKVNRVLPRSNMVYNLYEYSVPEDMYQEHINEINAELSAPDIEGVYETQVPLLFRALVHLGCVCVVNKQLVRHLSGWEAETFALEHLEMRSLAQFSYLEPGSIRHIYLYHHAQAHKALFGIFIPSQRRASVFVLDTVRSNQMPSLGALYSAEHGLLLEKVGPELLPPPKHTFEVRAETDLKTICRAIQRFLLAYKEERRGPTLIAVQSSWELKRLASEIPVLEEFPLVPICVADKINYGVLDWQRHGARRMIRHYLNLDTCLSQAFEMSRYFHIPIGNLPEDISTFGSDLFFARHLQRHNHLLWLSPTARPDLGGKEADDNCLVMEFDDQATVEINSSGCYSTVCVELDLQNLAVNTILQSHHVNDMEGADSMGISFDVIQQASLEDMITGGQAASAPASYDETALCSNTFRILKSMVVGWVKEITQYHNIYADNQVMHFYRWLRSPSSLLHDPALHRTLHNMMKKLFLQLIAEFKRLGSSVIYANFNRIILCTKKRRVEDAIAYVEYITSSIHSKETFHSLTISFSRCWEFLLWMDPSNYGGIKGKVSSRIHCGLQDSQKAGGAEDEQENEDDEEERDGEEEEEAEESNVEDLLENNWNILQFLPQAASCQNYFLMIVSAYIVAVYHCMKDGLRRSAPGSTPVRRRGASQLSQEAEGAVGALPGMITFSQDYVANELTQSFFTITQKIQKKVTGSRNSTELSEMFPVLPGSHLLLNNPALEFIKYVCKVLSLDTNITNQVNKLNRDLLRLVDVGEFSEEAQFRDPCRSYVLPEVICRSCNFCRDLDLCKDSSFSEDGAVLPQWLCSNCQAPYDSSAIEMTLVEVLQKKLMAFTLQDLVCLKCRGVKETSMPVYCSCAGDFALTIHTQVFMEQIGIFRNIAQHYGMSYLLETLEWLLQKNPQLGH

For CCCCCCCC/C=C\CCCCCCCC(=O)Oc1cccc2c1C(=O)C=C(C)C2=O [2f, 5-O-oleoyl-2-methyl-1,4-naphthoquinone], the IC50 (Calf pol α) was 4.8 ± 0.38 µM, the “inhibition of pol γ relative activity (in words)” value (Human pol γ; 10 µM compound, Fig. 4) was “strongest inhibition” and the IC50 (Human pol γ; 0.05 units enzyme, mean ± SD (n = 3)) was 4.5 ± 0.4 µM. The IC50 (Human pol ε) was 4.9 ± 0.4 µM, the IC50 (Human pol κ) was 7.6 ± 0.41 µM and the “effect on enzyme activity (in words)” value (Taq pol) was “had no effect”. For the same compound, the IC50 (Taq pol; 0.05 units enzyme, 74°C) was > 100 µM.
